IC50 data for twelve molecules are collected here from ChEMBL document CHEMBL3301562, “MMV Box screening against Plasmodium falciparum protein kinases and aminoacyl tRNA synthetases”.

A value given as a limit tells only on which side of the number the result lay.

For orientation: IC50 means the concentration needed to halve the response being measured.

Holding throughout (format): functional
The target of test [1] is Calcium-dependent protein kinase 1 (Plasmodium falciparum, UniProt P62344). As to the kind of experiment: MMV: CDPK1 Protein kinase inhibition assay using recombinant PfCDPK1, syntide 2 peptide substrate, ATP and KinaseGlo to measure % inhibition at 1 uM MMV box compound.
Calcium-dependent protein kinase 1, sequence (P62344 whole entry): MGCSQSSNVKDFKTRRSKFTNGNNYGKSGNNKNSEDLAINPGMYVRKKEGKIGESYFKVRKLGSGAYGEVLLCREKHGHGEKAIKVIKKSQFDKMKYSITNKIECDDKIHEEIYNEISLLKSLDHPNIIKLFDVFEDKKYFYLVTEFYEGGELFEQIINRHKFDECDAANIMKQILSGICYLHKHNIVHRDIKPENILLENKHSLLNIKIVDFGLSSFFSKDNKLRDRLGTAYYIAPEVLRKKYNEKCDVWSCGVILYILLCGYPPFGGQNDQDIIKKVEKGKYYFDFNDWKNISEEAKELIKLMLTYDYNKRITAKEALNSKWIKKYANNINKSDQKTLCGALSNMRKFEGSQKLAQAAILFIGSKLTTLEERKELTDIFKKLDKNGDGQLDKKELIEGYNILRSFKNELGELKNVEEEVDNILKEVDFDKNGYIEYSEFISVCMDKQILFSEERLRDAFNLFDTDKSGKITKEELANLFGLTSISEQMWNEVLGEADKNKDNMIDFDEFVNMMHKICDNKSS
Test [2] deals with T1, Proline--tRNA ligase (Plasmodium falciparum (isolate 3D7), UniProt Q8I5R7).
T1 sequence (Q8I5R7 whole entry): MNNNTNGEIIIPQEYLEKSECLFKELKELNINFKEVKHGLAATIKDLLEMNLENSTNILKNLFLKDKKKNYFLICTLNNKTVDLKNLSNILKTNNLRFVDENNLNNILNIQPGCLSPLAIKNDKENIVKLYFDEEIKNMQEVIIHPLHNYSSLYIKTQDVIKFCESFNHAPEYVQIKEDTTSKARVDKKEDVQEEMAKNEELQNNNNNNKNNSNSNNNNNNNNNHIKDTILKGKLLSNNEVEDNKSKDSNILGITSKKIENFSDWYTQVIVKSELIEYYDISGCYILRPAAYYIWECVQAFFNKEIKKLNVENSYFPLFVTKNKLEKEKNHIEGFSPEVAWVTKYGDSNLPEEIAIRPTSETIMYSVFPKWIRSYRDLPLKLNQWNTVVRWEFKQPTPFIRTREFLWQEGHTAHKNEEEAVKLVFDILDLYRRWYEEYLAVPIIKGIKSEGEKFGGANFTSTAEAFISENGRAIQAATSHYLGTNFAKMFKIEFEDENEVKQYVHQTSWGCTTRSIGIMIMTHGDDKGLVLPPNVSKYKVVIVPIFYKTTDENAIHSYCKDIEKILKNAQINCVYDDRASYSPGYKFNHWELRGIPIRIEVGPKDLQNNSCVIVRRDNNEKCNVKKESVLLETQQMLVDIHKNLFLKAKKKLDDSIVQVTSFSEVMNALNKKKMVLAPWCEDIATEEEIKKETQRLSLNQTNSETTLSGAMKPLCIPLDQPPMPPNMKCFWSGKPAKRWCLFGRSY
As to the kind of experiment: MMV: ProRS recombinant Plasmodium falciparum Prolyl-tRNA-synthetase, assay with yeast tRNA, ATP, and proline and 3 uM MMV malaria box compound, assay read out with kinase glo as % inhibition. (In general: Kinase-Glo reads ATP consumption through a luciferase reaction.)

Test [3] concerns the target T2, Putative uncharacterized protein pk7 (Plasmodium falciparum, UniProt O96214).
T2 sequence (O96214 whole entry): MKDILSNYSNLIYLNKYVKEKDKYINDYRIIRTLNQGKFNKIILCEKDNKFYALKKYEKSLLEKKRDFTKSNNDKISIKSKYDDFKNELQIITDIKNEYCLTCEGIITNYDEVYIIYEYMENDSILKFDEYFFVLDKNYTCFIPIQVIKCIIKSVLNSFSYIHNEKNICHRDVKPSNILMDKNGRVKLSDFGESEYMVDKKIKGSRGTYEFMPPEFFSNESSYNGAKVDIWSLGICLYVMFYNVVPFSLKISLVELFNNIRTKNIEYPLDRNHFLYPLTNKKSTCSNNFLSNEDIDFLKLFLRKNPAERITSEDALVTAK
As to the kind of experiment: Final concentrations were 1 uM ATP, 2 mM DTT, 20 mM MgCl2, 2 mM MnCl2, 0.01% BSA, and 6 ug/ml PK7, in a buffer of 20 mM Tris-HCl (pH 7.5). The enzyme itself was the only substrate present (since autophosphorylation occurs); 100 uM 1NA-PP1 was used as a control inhibitor. Incubation time was 3 hours.

In test [4] the target is T3, Mitogen-activated protein kinase (Plasmodium falciparum, UniProt Q25917).
T3 sequence (Q25917 whole entry): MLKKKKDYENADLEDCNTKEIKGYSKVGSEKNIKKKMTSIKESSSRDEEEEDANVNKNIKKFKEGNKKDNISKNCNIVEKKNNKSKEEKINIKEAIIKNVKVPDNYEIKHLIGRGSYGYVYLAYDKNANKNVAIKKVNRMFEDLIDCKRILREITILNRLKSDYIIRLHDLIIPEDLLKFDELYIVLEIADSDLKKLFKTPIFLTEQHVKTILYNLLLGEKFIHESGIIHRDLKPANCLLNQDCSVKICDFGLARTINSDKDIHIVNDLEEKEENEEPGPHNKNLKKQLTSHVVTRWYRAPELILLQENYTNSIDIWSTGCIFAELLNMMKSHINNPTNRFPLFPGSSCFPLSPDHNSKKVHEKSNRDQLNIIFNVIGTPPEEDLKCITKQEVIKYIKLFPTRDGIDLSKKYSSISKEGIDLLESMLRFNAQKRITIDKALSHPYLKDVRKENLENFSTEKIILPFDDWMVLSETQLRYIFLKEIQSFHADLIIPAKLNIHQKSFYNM
As to the kind of experiment: Final concentrations were 1 uM ATP, 0.5 mM DTT, 1 mM MgCl2, 0.5 mg/mL BSA, and 10 ug/ml MAP2 in a buffer of 50 mM HEPES (pH 7.0). 0.5 mg/mL histone III-S served as the substrate (13); 100 uM AMP-PNP, an ATP analog, was used as a control inhibitor. Incubation time was 4 hours.

For test [5], the target named is T4, Calcium-dependent protein kinase 4 (Plasmodium falciparum (isolate 3D7), UniProt Q8IBS5).
T4 sequence (Q8IBS5 whole entry): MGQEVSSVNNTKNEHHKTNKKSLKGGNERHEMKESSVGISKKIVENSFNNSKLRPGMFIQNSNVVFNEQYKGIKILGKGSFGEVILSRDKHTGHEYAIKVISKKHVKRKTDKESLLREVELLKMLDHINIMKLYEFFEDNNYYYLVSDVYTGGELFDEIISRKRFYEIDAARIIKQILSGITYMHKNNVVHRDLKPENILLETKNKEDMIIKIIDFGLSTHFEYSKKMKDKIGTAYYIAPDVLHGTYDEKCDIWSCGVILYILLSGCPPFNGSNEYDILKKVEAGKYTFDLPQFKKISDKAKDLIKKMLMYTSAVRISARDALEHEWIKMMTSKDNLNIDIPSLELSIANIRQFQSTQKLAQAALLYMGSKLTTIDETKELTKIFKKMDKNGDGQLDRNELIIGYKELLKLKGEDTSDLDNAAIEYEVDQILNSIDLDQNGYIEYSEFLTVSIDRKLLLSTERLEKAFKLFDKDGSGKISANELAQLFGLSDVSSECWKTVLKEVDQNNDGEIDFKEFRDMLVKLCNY
As to the kind of experiment: MMV: CDPK4 Protein kinase inhibition assay using recombinant PfCDPK4, syntide2 peptide substrate, ATP and KinaseGlo to measure % inhibition at 1 uM MMV box compound.

Test [6] concerns the target Lysine--tRNA ligase (Plasmodium falciparum (isolate 3D7), UniProt Q8IDJ8). Put plainly: MMV: KRS recombinant Plasmodium falciparum Lysyl-tRNA-synthetase, assay with yeast tRNA, ATP, and lysine and 3 uM MMV malaria box compound, assay read out with kinase glo as % inhibition.
The target in test [7] is T5, Cdk-related protein kinase 6 (Plasmodium falciparum, UniProt O77239).
T5 sequence (O77239 whole entry): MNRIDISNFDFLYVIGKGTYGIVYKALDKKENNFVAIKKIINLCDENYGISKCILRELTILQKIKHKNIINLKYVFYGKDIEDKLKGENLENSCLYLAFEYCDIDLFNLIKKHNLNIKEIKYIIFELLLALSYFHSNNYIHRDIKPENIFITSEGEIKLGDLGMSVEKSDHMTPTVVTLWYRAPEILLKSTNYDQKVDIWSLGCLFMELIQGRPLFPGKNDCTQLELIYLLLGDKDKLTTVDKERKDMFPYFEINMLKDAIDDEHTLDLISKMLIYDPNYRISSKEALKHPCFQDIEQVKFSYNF
As to the kind of experiment: Final concentrations were 1.5 uM ATP, 5 mM MnCl2, and 15 ug/ml PK6 in a buffer of 100 mM Tris-HCl (pH 7.5). 50 ug/mL MBP was provided as the substrate; 10 uM staurosporine was used as a control inhibitor. Incubation time was 3 hours and 40 minutes.The catalytic activity of each kinase was considered proportional to ATP consumed, as determined from measurements of residual [ATP] with the luciferase-based reagent Kinase-Glo (Promega) following incubation. Luminescence (proportional to residual [ATP]) was measured on the plate readers FLx800 (BioTek Instruments, Winooski, VT, USA) and MicroBeta2.

Lysine--tRNA ligase, sequence (Q8IDJ8 whole entry): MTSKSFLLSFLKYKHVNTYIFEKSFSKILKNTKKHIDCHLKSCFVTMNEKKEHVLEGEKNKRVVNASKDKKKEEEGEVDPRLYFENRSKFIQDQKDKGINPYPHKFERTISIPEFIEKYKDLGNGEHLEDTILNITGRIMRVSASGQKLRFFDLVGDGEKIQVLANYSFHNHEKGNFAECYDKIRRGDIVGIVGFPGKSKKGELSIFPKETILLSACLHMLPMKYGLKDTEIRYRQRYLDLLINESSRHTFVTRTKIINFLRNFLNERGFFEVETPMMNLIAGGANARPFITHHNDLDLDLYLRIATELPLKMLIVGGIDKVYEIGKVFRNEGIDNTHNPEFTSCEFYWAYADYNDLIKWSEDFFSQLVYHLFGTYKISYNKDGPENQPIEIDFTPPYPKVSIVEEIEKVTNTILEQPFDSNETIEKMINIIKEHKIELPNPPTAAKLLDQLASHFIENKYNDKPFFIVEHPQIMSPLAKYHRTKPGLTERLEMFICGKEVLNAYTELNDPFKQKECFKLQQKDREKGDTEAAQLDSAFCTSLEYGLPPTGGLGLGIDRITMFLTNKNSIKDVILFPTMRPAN

Regarding `CN(C)CCCNc1c2ccccc2nc2ccccc12`, the IC50 was above 1000 nM in test [1]; above 2500 nM in test [2]; above 1000 nM in test [3]; above 1000 nM in test [4]; above 1000 nM in test [5]; above 2500 nM in test [6]. The molecule further yielded an IC50 in test [7] above 1000 nM.

Turning to `COc1ccc(-c2c(C)nn3c(N)c(C#N)cnc23)cc1OC`, the IC50 in test [1] was above 1000 nM; in test [2] it was above 2500 nM; in test [3] it was above 1000 nM; in test [4], above 1000 nM; in test [5], above 1000 nM; in test [6], above 2500 nM. In test [7], this molecule displayed an IC50 above 1000 nM.

Regarding `CSC1=NC(=Nc2c(C)cccc2C)C2(CCC(C(C)(C)C)CC2)N1c1ccc(Cl)cc1` (centres undefined), the IC50 is above 1000 nM in test [1]; above 2500 nM in test [2]; above 1000 nM in test [3]; above 1000 nM in test [4]; above 1000 nM in test [5]; above 2500 nM in test [6]. This molecule had an IC50 in test [7] above 1000 nM.

With `COc1ccc(-c2cc3c(SCC(=O)Nc4cc(C(F)(F)F)ccc4Cl)nccn3n2)cc1`, the IC50 in test [1] was above 1000 nM; in test [2] it was above 2500 nM; in test [3], above 1000 nM; in test [4], above 1000 nM; in test [5] it was above 1000 nM; in test [6] it was above 2500 nM. For the same molecule, the IC50 in test [7] was above 1000 nM.

`O=C(O)C1Cc2c([nH]c3ccccc23)C(c2ccc(Cl)cc2Cl)N1` (centres undefined): the half-maximal inhibitory concentration (IC50) in test [1] was above 1000 nM; in test [2], above 2500 nM; in test [3] it was above 1000 nM; in test [4] it was above 1000 nM; in test [5], above 1000 nM; in test [6] it was above 2500 nM. The molecule further returned an IC50 in test [7] above 1000 nM.

Turning to `COc1cccc(NC(=O)[C@H](C(C)C)n2c(=O)[nH]c3ccccc3c2=O)c1`, the IC50 in test [1] was above 1000 nM; in test [2], above 2500 nM; in test [3] it was above 1000 nM; in test [4], above 1000 nM; in test [5], above 1000 nM; in test [6], above 2500 nM. The IC50 in test [7] is above 1000 nM.

Regarding `CC(C)(C)c1ccc(O)c(CNC2CCCCC2)c1`, the IC50 is above 1000 nM in test [1]; above 2500 nM in test [2]; above 1000 nM in test [3]; above 1000 nM in test [4]; above 1000 nM in test [5]; above 2500 nM in test [6]. This molecule also gave an IC50 in test [7] above 1000 nM.

With `COc1ccc(C2=C(c3ccc(OC)cc3)C3(c4ccccc4)C(=O)C2(c2ccccc2)C2C(=O)N(c4ccc(C)cc4)C(=O)C23)cc1` (centres undefined), the IC50 is above 1000 nM in test [1]; above 2500 nM in test [2]; above 1000 nM in test [3]; above 1000 nM in test [4]; above 1000 nM in test [5]; above 2500 nM in test [6]. The molecule further came in with an IC50 in test [7] above 1000 nM.

Turning to `COc1ccc(C=C2SC(=N)N(c3ccccc3OC)C2=O)cc1`, the IC50 in test [1] is above 1000 nM; in test [2] it was above 2500 nM; in test [3] it was above 1000 nM; in test [4], above 1000 nM; in test [5], above 1000 nM; in test [6] it was above 2500 nM. Also, the concentration for half-maximal inhibition (IC50) in test [7] is above 1000 nM.

For the molecule `COc1ccccc1CNC(=O)CCn1c(=O)[nH]c2ccccc2c1=O`, the IC50 in test [1] was above 1000 nM; in test [2], above 2500 nM; in test [3], above 1000 nM; in test [4] it was above 1000 nM; in test [5] it was above 1000 nM; in test [6] it was above 2500 nM. In test [7], this molecule showed an IC50 above 1000 nM.

On to `Oc1ccccc1CNCC12CC3CC(CC(C3)C1)C2`, for which the IC50 in test [1] was above 1000 nM; in test [2] it was above 2500 nM; in test [3] it was above 1000 nM; in test [4], above 1000 nM; in test [5] it was above 1000 nM; in test [6], above 2500 nM. For the same molecule, in test [7], the IC50 was above 1000 nM.

Regarding `CNCCCNc1ccnc2cc(Cl)ccc12`, the IC50 in test [1] is above 1000 nM; in test [2], above 2500 nM; in test [3], above 1000 nM; in test [4], above 1000 nM; in test [5] it was above 1000 nM; in test [6], above 2500 nM. In test [7], this molecule returned a concentration for half-maximal inhibition (IC50) above 1000 nM.
